Measured values taken from PubChem BioAssay (NCI).
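These data come from cells grown in 96-well plates and exposed to compound for 48 hours at five concentrations. Abbreviation: GI50, concentration required for 50% inhibition of growth. The concentration for full growth arrest is given as TGI.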

Legend:
Assay in all cases: DTP human tumour cell line panel, 48 h
[1] = test system: U251 CNS
[2] = test system: NCI-H460 lung
[3] = test system: MDA-MB-231 breast
[4] = test system: UACC-257 melanoma
[5] = test system: HOP-92 NSCLC
[6] = test system: KM12 colon
[7] = test system: NCI-H226 lung
[8] = test system: K-562 leukemia
[9] = test system: NCI-H522 lung
[10] = test system: BT-549 breast
[11] = test system: ACHN renal
[12] = test system: SK-MEL-2 melanoma
[13] = test system: MOLT-4 leukemia
[14] = test system: CCRF-CEM leukemia
[15] = test system: NCI-H23 lung
[16] = test system: M14 melanoma
[17] = test system: LOX IMVI melanoma
[18] = test system: PC-3 prostate
[19] = test system: COLO 205 colon
[20] = test system: MCF7 breast
[21] = test system: OVCAR-3 ovarian
[22] = test system: HS 578T breast
[23] = test system: UACC-62 melanoma
[24] = test system: SW-620 colon
[25] = test system: 786-0 renal
[26] = test system: RXF 393 renal
[27] = test system: OVCAR-5 ovarian
[28] = test system: HT29 colon
[29] = test system: HL-60(TB) leukemia
[30] = test system: A498 renal
[31] = test system: SNB-75 CNS
[32] = test system: EKVX NSCLC
[33] = test system: SK-MEL-28 melanoma
[34] = test system: HCT-116 colon
[35] = test system: MDA-MB-435
[36] = test system: SN12C renal
[37] = test system: SF-539 CNS
[38] = test system: SR leukemia
[39] = test system: T-47D breast
[40] = test system: HOP-62 NSCLC
[41] = test system: A549 NSCLC
[42] = test system: OVCAR-4 ovarian
[43] = test system: SF-268 CNS
[44] = test system: NCI/ADR-RES ovarian
[45] = test system: UO-31 renal
[46] = test system: MALME-3M melanoma
[47] = test system: SK-MEL-5 melanoma
[48] = test system: SF-295 CNS
[49] = test system: CAKI-1 renal
[50] = test system: OVCAR-8 ovarian
[51] = test system: DU-145 prostate
[52] = test system: SK-OV-3 ovarian
[53] = test system: IGROV1 ovarian
[54] = test system: RPMI-8226 leukemia
[55] = test system: HCT-15 colon
[56] = test system: SNB-19 CNS
[57] = test system: TK-10 renal
[58] = test system: HCC-2998 colon

For `O=c1oc2c3ccc4cnccc4c3[nH]c2c2ccccc12`, the GI50 [1] was 7.57 µM, the TGI [1] was 20.8 µM and the GI50 [2] was 9.35 µM. The TGI [2] was 30.2 µM, the GI50 [3] was 16.9 µM and the TGI [3] was 38.5 µM. It also gave a GI50 [4] of 20.3 µM, a TGI [4] of 57.6 µM and a GI50 [5] of 10.2 µM. For the same molecule, the TGI [5] was 35 µM, the GI50 [6] was 13.1 µM and the TGI [6] was greater than 100 µM. The GI50 [7] was 26.6 µM, the TGI [7] was 72.6 µM and the GI50 [8] was 27.7 µM. It also gave a TGI [8] greater than 100 µM, a GI50 [9] of 11.8 µM and a TGI [9] of 77.1 µM. It also gave a GI50 [10] of 14.2 µM, a TGI [10] of 29.2 µM and a GI50 [11] of 31.5 µM. It also gave a TGI [11] greater than 100 µM, a GI50 [12] of 18.8 µM and a TGI [12] of 54.8 µM. For the same molecule, the GI50 [13] was 4.83 µM, the TGI [13] was 25.4 µM and the GI50 [14] was 3.94 µM. The TGI [14] was 11.6 µM, the GI50 [15] was 23.3 µM and the TGI [15] was 80.1 µM. The GI50 [16] was 13.4 µM, the TGI [16] was 26.6 µM and the GI50 [17] was 12.1 µM. For the same molecule, the TGI [17] was 28.2 µM, the GI50 [18] was 55.8 µM and the TGI [18] was greater than 100 µM. The GI50 [19] was 4.24 µM, the TGI [19] was 17.4 µM and the GI50 [20] was 2.24 µM. For the same molecule, the TGI [20] was 6.17 µM, the GI50 [21] was 18.3 µM and the TGI [21] was 32.4 µM. It also gave a GI50 [22] of 21.3 µM, a TGI [22] greater than 100 µM and a GI50 [23] of 17.6 µM. It also gave a TGI [23] of 42.1 µM, a GI50 [24] of 4.58 µM and a TGI [24] of 23.5 µM. It also gave a GI50 [25] of 4.47 µM, a TGI [25] of 17.6 µM and a GI50 [26] of 5.72 µM. For the same molecule, the TGI [26] was 19.4 µM, the GI50 [27] was 16.9 µM and the TGI [27] was 40.9 µM. It also gave a GI50 [28] of 10.5 µM, a TGI [28] of 37.2 µM and a GI50 [29] of 17.3 µM. For the same molecule, the TGI [29] was greater than 100 µM, the GI50 [30] was 95.5 µM and the TGI [30] was greater than 100 µM. For the same molecule, the GI50 [31] was 20.6 µM, the TGI [31] was 65.6 µM and the GI50 [32] was 76.5 µM. The TGI [32] was greater than 100 µM, the GI50 [33] was 16.4 µM and the TGI [33] was 32 µM. It also gave a GI50 [34] of 1.58 µM, a TGI [34] of 2.99 µM and a GI50 [35] of 18.1 µM. It also gave a TGI [35] of 34.2 µM, a GI50 [36] of 19.3 µM and a TGI [36] of 85.5 µM. For the same molecule, the GI50 [37] was 11.5 µM, the TGI [37] was 25.2 µM and the GI50 [38] was 1.78 µM. It also gave a TGI [38] of 4.19 µM, a GI50 [39] of 9.78 µM and a TGI [39] greater than 100 µM. The GI50 [40] was 3 µM, the TGI [40] was 8.3 µM and the GI50 [41] was 3.96 µM. It also gave a TGI [41] greater than 100 µM, a GI50 [42] of 15.5 µM and a TGI [42] of 31 µM. For the same molecule, the GI50 [43] was 13.1 µM, the TGI [43] was greater than 100 µM and the GI50 [44] was 66.4 µM. The TGI [44] was greater than 100 µM, the GI50 [45] was 22.9 µM and the TGI [45] was greater than 100 µM. For the same molecule, the GI50 [46] was 18.9 µM, the TGI [46] was 45.1 µM and the GI50 [47] was 8.01 µM. The TGI [47] was 22.2 µM, the GI50 [48] was 41.7 µM and the TGI [48] was greater than 100 µM. For the same molecule, the GI50 [49] was 47 µM, the TGI [49] was greater than 100 µM and the GI50 [50] was 16.1 µM. For the same molecule, the TGI [50] was greater than 100 µM, the GI50 [51] was 12.3 µM and the TGI [51] was 32.9 µM. For the same molecule, the GI50 [52] was greater than 100 µM, the TGI [52] was greater than 100 µM and the GI50 [53] was 12.7 µM. It also gave a TGI [53] greater than 100 µM, a GI50 [54] of 7.94 µM and a TGI [54] of 33.4 µM. It also gave a GI50 [55] of 30.7 µM, a TGI [55] greater than 100 µM and a GI50 [56] of 18.5 µM. For the same molecule, the TGI [56] was greater than 100 µM, the GI50 [57] was 43.8 µM and the TGI [57] was greater than 100 µM.

Work on `CNC1=C(C(=O)OC)SC(c2ccccc2)(c2ccccc2)SC1` yielded a GI50 [1] of 34.8 µM, a TGI [1] greater than 100 µM and a GI50 [2] of 16.9 µM. For the same molecule, the TGI [2] was greater than 100 µM, the GI50 [3] was 45.8 µM and the TGI [3] was greater than 100 µM. It also gave a GI50 [4] of 9.2 µM, a TGI [4] greater than 100 µM and a GI50 [5] of 20.7 µM. The TGI [5] was greater than 100 µM, the GI50 [6] was 6.92 µM and the TGI [6] was greater than 100 µM. For the same molecule, the GI50 [7] was greater than 100 µM, the TGI [7] was greater than 100 µM and the GI50 [8] was 4.73 µM. The TGI [8] was greater than 100 µM, the GI50 [9] was 4.01 µM and the TGI [9] was greater than 100 µM. For the same molecule, the GI50 [10] was 29.5 µM, the TGI [10] was greater than 100 µM and the GI50 [12] was 7.06 µM. The TGI [12] was 85.8 µM, the GI50 [13] was 7.56 µM and the TGI [13] was greater than 100 µM. For the same molecule, the GI50 [15] was 17.5 µM, the TGI [15] was greater than 100 µM and the GI50 [16] was 7.12 µM. The TGI [16] was 67.7 µM, the GI50 [17] was 21.2 µM and the TGI [17] was greater than 100 µM. The GI50 [18] was 15.3 µM, the TGI [18] was greater than 100 µM and the GI50 [19] was 23.9 µM. For the same molecule, the TGI [19] was greater than 100 µM, the GI50 [20] was 11.6 µM and the TGI [20] was greater than 100 µM. It also gave a GI50 [21] greater than 100 µM, a TGI [21] greater than 100 µM and a GI50 [22] of 28.1 µM. It also gave a TGI [22] greater than 100 µM, a GI50 [23] of 9.51 µM and a TGI [23] greater than 100 µM. For the same molecule, the GI50 [24] was 15 µM, the TGI [24] was greater than 100 µM and the GI50 [25] was 31.9 µM. The TGI [25] was greater than 100 µM, the GI50 [26] was 22 µM and the TGI [26] was greater than 100 µM. The GI50 [58] was 13.1 µM, the TGI [58] was greater than 100 µM and the GI50 [27] was greater than 100 µM. For the same molecule, the TGI [27] was greater than 100 µM, the GI50 [28] was 20.9 µM and the TGI [28] was greater than 100 µM. For the same molecule, the GI50 [29] was 12 µM, the TGI [29] was 58.2 µM and the GI50 [30] was 11.4 µM. For the same molecule, the TGI [30] was 85.3 µM, the GI50 [31] was 26.1 µM and the TGI [31] was greater than 100 µM. For the same molecule, the GI50 [32] was 36.1 µM, the TGI [32] was greater than 100 µM and the GI50 [33] was 26.6 µM. It also gave a TGI [33] greater than 100 µM, a GI50 [34] of 9.22 µM and a TGI [34] greater than 100 µM. For the same molecule, the GI50 [35] was 3.15 µM, the TGI [35] was 10.9 µM and the GI50 [36] was 24 µM. It also gave a TGI [36] greater than 100 µM, a GI50 [37] of 26.3 µM and a TGI [37] greater than 100 µM. For the same molecule, the GI50 [38] was 2.4 µM, the TGI [38] was 7.93 µM and the GI50 [39] was 34.6 µM. For the same molecule, the TGI [39] was greater than 100 µM, the GI50 [40] was 39.4 µM and the TGI [40] was greater than 100 µM. It also gave a GI50 [41] of 9.63 µM, a TGI [41] greater than 100 µM and a GI50 [42] of 8.58 µM. It also gave a TGI [42] of 82.6 µM, a GI50 [43] of 18.9 µM and a TGI [43] greater than 100 µM. The GI50 [44] was 12 µM, the TGI [44] was 70.2 µM and the GI50 [45] was greater than 100 µM. For the same molecule, the TGI [45] was greater than 100 µM, the GI50 [47] was 19.5 µM and the TGI [47] was greater than 100 µM. It also gave a GI50 [48] of 6.06 µM, a TGI [48] of 39.4 µM and a GI50 [49] of 44.1 µM. For the same molecule, the TGI [49] was greater than 100 µM, the GI50 [50] was 24.9 µM and the TGI [50] was greater than 100 µM. The GI50 [51] was 20.4 µM, the TGI [51] was greater than 100 µM and the GI50 [52] was 71.1 µM. For the same molecule, the TGI [52] was greater than 100 µM, the GI50 [54] was 8.83 µM and the TGI [54] was 39.7 µM. The GI50 [55] was 9.36 µM, the TGI [55] was greater than 100 µM and the GI50 [56] was 52.8 µM. The TGI [56] was greater than 100 µM, the GI50 [57] was 25.3 µM and the TGI [57] was greater than 100 µM.
